In patent US11771663B2, “Epinephrine spray formulations” (HIKMA PHARMACEUTICALS USA INC., priority 2015, dated 2023):

Key:
[1] = Rabbit pharmacokinetics, single-dose non-crossover, plasma epinephrine by LC-MS/MS; type: in vivo, New Zealand white rabbits; details: male, New Zealand white, intramuscular, 0.03 mg per animal, single-dose IM
Experimental: Protocol design was a single-dose non-crossover study. Pharmacokinetics of a number of epinephrine formulations were evaluated in healthy male New Zealand white rabbits weighing approximately two to three kilograms. For dosing of each formulation, five or six rabbits were used. The rabbits were fasted overnight till four hours' post administration. Blood samples were taken prior to administration and 5, 10, 15, 20, 30, 40 min, 1, 1.5, 2, 4, and 5 hours' post dose. Rabbit plasma samples were measured for epinephrine concentrations via liquid chromatography-tandem mass spectrometry. Formulation #R9 existed as a spray-dried powder of epinephrine bitartrate salt. For the evaluation of #R9, approximately 21.83 mg of powder was dosed to each animal, as an equivalent dose of 12 mg epinephrine.

[2] = Mini-pig pharmacokinetics, single-dose crossover, plasma epinephrine by LC-MS/MS; type: in vivo, Yucatan mini-pigs; details: male, Yucatan, 0.3 mg per animal, minipig, single-dose intramuscular (IM), read-out: geometric mean plasma concentration of epinephrine
Experimental: Protocol design was a single-dose crossover study. Five healthy male Yucatan mini-pigs weighing approximately eighty to ninety-five kilograms each were administered epinephrine formulations. The minipigs were fasted overnight till four hours' post administration. Each dosing was followed by a washout period of at least one-week. Blood samples were taken prior to administration and 2, 5, 10, 15, 20, 30, 45 min, 1, 1.5, 2, 4, and 24 hours' post dose. Minipig plasma samples were measured for epinephrine concentrations via liquid chromatography-tandem mass spectrometry.

CNC[C@H](O)c1ccc(O)c(O)c1 [epinephrine, Epinephrine]
concentration at 5 min [1]: 0.988 ng/mL | concentration at 5 min [2]: 0.046 ng/mL
